In publication PMC7725003, “Systematically Studying the Optimal Amino Acid Distribution Patterns of the Amphiphilic Structure by Using the Ultrashort Amphiphiles” (Frontiers in Microbiology, 2020):
Like-named read-outs stand apart in the source and are kept apart here. Where no end group is shown, it is not given here.

Tests used:
E. coli 25922 = assay type: cell-based, Escherichia coli
Description: (§1) The antimicrobial activities of the peptides were measured using a method adapted from the National Committee for Clinical Laboratory Standards (NCCLS) with some modifications ([Chou et al., 2016]). The specific procedure for these assays has been previously described. In brief, the bacterial cells were grown to a mid-logarithmic phase and diluted in MHB to an ultimate concentration of 0.5–1 × 10^6 CFU mL^–1. Subsequently, the peptides were consecutively diluted in a 0.2% BSA solution and then added to a bacterial solution in a 96-well plate at identical volumes. After incubation for 24 h at 37°C, the MICs were determined to be the lowest peptide concentration that inhibited 95% of the bacterial growth by monitoring the absorbance at 492 nm using a microplate reader. Subsequently, 50 μL of each incubation mixture was further transferred to agar plates and incubated overnight. The minimum bactericidal concentrations (MBCs) were determined as the lowest peptide concentration that killed greater than 99.9% of the bacterial cells. Every assay was reproduced more than 3 times.

E. coli O78 = assay type: cell-based, Escherichia coli
Description: as §1

E. coli UB1005 = assay type: cell-based, Escherichia coli
Description: as §1

S. typhimurium 14028 = assay type: cell-based, Salmonella typhimurium
Description: as §1

S. typhimurium 7731 = assay type: cell-based, Salmonella typhimurium
Description: as §1

S. pullorum 7913 = assay type: cell-based, Salmonella pullorum
Description: as §1

P. aeruginosa 27853 = assay type: cell-based, Pseudomonas aeruginosa
Description: as §1

E. coli K88 = test system: E. coli K88
Description: as §1, with “The minimum bactericidal concentrations (MBCs) were determined as the lowest peptide concentration that killed greater than 99.9% of the bacterial cells.” left out

E. coli K99 = test system: E. coli K99
Description: as §1, with “The minimum bactericidal concentrations (MBCs) were determined as the lowest peptide concentration that killed greater than 99.9% of the bacterial cells.” left out

Gram-negative bacteria [1] = test system: Gram-negative bacteria
Description: (§2) The antimicrobial activity of AMPs is the most decisive index for evaluating the clinical application of antimicrobial drugs.
as §1, with “The minimum bactericidal concentrations (MBCs) were determined as the lowest peptide concentration that killed greater than 99.9% of the bacterial cells.” left out

Gram-positive bacteria [2] = test system: Gram-positive bacteria
Description: as §2
as §1, with “The minimum bactericidal concentrations (MBCs) were determined as the lowest peptide concentration that killed greater than 99.9% of the bacterial cells.” left out

S. aureus 25923 = assay type: cell-based, Staphylococcus aureus
Description: as §1

S. aureus 29213 [3] = assay type: cell-based, Staphylococcus aureus
Description: as §1

S. epidermidis 12228 = assay type: cell-based, Staphylococcus epidermidis
Description: as §1

MRSA 43300 = assay type: cell-based, methicillin-resistant S. aureus
Description: as §1

B. subtilis 63501 = assay type: cell-based, Bacillus subtilis
Description: as §1

E. faecalis 29212 = assay type: cell-based, Enterococcus faecalis
Description: as §1

[4] = test system: Listeria monocytogenes CGMCC 1.1075; assay type: cell-based
Description: as §1

E. coli ATCC 25922 = experiment: Salt sensitivity assay (MIC); assay type: cell-based, Escherichia coli; conditions: for MIC, FeCl3: 4 μM FeCl3; for MIC, NH4Cl: 6 μM NH4Cl; for MIC, ZnCl2: 8 μM ZnCl2; for MIC, MgCl2: 1 mM MgCl2; for MIC, CaCl2: 2 mM CaCl2; for MIC, KCl: 4.5 mM KCl; for MIC, NaCl: 150 mM NaCl; for MIC, Control: no added salt, three independent assays
Description: as §1
(§3) The salt sensitivities of the peptides were determined. E. coli ATCC 25922 and S. aureus ATCC 29213 were incubated in the presence of various ultimate concentrations of physiological salts (150 mM NaCl, 4.5 mM KCl, 6 μM NH4Cl, 8 μM ZnCl2, 1 mM MgCl2, 2mM CaCl2, and 4 μM FeCl3) according to our previous protocol ([Yang et al., 2019]). These tests were performed under the MICs, and three independent assays were performed.

S. aureus 29213 [5] = experiment: Salt sensitivity assay (MIC); assay type: cell-based, Staphylococcus aureus; conditions: for MIC, FeCl3: 4 μM FeCl3; for MIC, NH4Cl: 6 μM NH4Cl; for MIC, ZnCl2: 8 μM ZnCl2; for MIC, MgCl2: 1 mM MgCl2; for MIC, CaCl2: 2 mM CaCl2; for MIC, KCl: 4.5 mM KCl; for MIC, NaCl: 150 mM NaCl; for MIC, Control: no added salt, three independent assays
Description: as §1, §3

Gram-negative bacteria [6] = conditions: geometric mean of MBCs, 9 Gram-negative strains (Table 2)
Gram-positive bacteria [7] = conditions: geometric mean of MBCs, 7 Gram-positive strains (Table 2)
[8] = test system: all of the tested bacterial strains; experiment: Geometric mean of MICs, all tested bacterial strains; assay type: cell-based
From the text: The antimicrobial activity of AMPs is the most decisive index for evaluating the clinical application of antimicrobial drugs. Many antimicrobial agents inhibit bacterial growth rather than kill the bacteria quickly, and long-term infections are pathogens that are not completely killed, which results in bacterial severe drug resistance. […] The geometric mean (GM) values of the MICs/MBCs of the two series across all of the tested bacterial strains are represented in Table 3, which depicts the average bacteriostatic/bactericidal level of a peptide.
as §1

[9] = MHB, 24 h 37°C, 95% growth inhibition
[10] = value in brackets, >99.9% of cells killed
[11] = geometric mean of MICs (Table 3)
[12] = therapeutic index TI = MHC/GM MIC

Polymyxin B [reference compound]
MIC (E. coli 25922; MHB, 0.5–1 × 10^6 CFU/mL, 24 h 37°C, lowest concentration inhibiting 95% of growth (A492), more than 3 repeats): 4 µM
MBC (E. coli 25922; value in brackets, agar plating, lowest concentration killing >99.9% of cells): 8 µM
MIC (E. coli O78; [9]): 2 µM
MBC (E. coli O78; [10]): 4 µM
MIC (E. coli UB1005; [9]): 2 µM
MBC (E. coli UB1005; [10]): 4 µM
MIC (S. typhimurium 14028; [9]): 4 µM
MBC (S. typhimurium 14028; [10]): 8 µM
MIC (S. typhimurium 7731; [9]): 2 µM
MBC (S. typhimurium 7731; [10]): 4 µM
MIC (S. pullorum 7913; [9]): 4 µM
MBC (S. pullorum 7913; [10]): 8 µM
MIC (P. aeruginosa 27853; [9]): 8 µM
MBC (P. aeruginosa 27853; [10]): 16 µM
MIC (E. coli K88; [9]): 2 µM
MBC (E. coli K88; [10]): 4 µM
MIC (E. coli K99; [9]): 2 µM
MBC (E. coli K99; [10]): 4 µM
GM MIC (Gram-negative bacteria [1]; geometric mean of MICs, 9 Gram-negative strains (Table 2)): 2.94 µM
GM MIC (Gram-positive bacteria [2]; geometric mean of MICs, 7 Gram-positive strains (Table 2)): 4.42 µM
MIC (S. aureus 25923; [9]): 2 µM
MBC (S. aureus 25923; [10]): 4 µM
MIC (S. aureus 29213 [3]; [9]): 4 µM
MBC (S. aureus 29213 [3]; [10]): 8 µM
MIC (S. epidermidis 12228; [9]): 2 µM
MBC (S. epidermidis 12228; [10]): 4 µM
MIC (MRSA 43300; [9]): 2 µM
MBC (MRSA 43300; [10]): 4 µM
MIC (B. subtilis 63501; [9]): 1 µM
MBC (B. subtilis 63501; [10]): 2 µM
MIC (E. faecalis 29212; [9]): 32 µM
MBC (E. faecalis 29212; [10]): > 64 µM
MIC [4, 9]: 32 µM
MBC [4, 10]: > 64 µM
MIC, FeCl3 (E. coli ATCC 25922): 4 µM
MIC, NH4Cl (E. coli ATCC 25922): 4 µM
MIC, ZnCl2 (E. coli ATCC 25922): 4 µM
MIC, MgCl2 (E. coli ATCC 25922): 4 µM
MIC, CaCl2 (E. coli ATCC 25922): 8 µM
MIC, KCl (E. coli ATCC 25922): 8 µM
MIC, NaCl (E. coli ATCC 25922): 8 µM
MIC, Control (E. coli ATCC 25922): 4 µM
MIC, FeCl3 (S. aureus 29213 [5]): 16 µM
MIC, NH4Cl (S. aureus 29213 [5]): 16 µM
MIC, ZnCl2 (S. aureus 29213 [5]): 16 µM
MIC, MgCl2 (S. aureus 29213 [5]): 16 µM
MIC, CaCl2 (S. aureus 29213 [5]): 64 µM
MIC, KCl (S. aureus 29213 [5]): 16 µM
MIC, NaCl (S. aureus 29213 [5]): 32 µM
MIC, Control (S. aureus 29213 [5]): 16 µM
GM MBC (Gram-negative bacteria [6]): 5.88 µM
GM MBC (Gram-positive bacteria [7]): 10.77 µM

WWRWRRRWW-NH2 [W2]
MBC (E. coli 25922; 25922, 24 h): 8 µM
MIC (E. coli 25922; 25922, 24 h): 4 µM
MBC (E. coli O78; O78, 24 h): 16 µM
MIC (E. coli O78; O78, 24 h): 8 µM
MBC (E. coli UB1005; UB1005, 24 h): 8 µM
MIC (E. coli UB1005; UB1005, 24 h): 4 µM
MBC (S. typhimurium 14028; 14028, 24 h): 16 µM
MIC (S. typhimurium 14028; 14028, 24 h): 8 µM
MBC (S. typhimurium 7731; 7731, 24 h): 8 µM
MIC (S. typhimurium 7731; 7731, 24 h): 4 µM
MBC (S. pullorum 7913; 7913, 24 h): 8 µM
MIC (S. pullorum 7913; 7913, 24 h): 4 µM
MBC (P. aeruginosa 27853; 27853, 24 h): 32 µM
MIC (P. aeruginosa 27853; 27853, 24 h): 16 µM
GM, Gram-negative bacteria (Gram-negative bacteria [1]; [11]): 5.44 µM
TI, Gram-negative bacteria (Gram-negative bacteria [1]; [12]): 47.06
GM, Gram-positive bacteria (Gram-positive bacteria [2]; [11]): 2.97 µM
TI, Gram-positive bacteria (Gram-positive bacteria [2]; [12]): 86.20
MBC (S. aureus 25923; 25923, 24 h): 4 µM
MIC (S. aureus 25923; 25923, 24 h): 2 µM
MBC (S. aureus 29213 [3]; 29213, 24 h): 4 µM
MIC (S. aureus 29213 [3]; 29213, 24 h): 2 µM
MBC (S. epidermidis 12228; 12228, 24 h): 4 µM
MIC (S. epidermidis 12228; 12228, 24 h): 2 µM
MBC (MRSA 43300; 43300, 24 h): 4 µM
MIC (MRSA 43300; 43300, 24 h): 2 µM
MBC (B. subtilis 63501; 63501, 24 h): 2 µM
MIC (B. subtilis 63501; 63501, 24 h): 1 µM
MBC (E. faecalis 29212; 29212, 24 h): 16 µM
MIC (E. faecalis 29212; 29212, 24 h): 8 µM
MBC ([4]; CGMCC 1.1075, 24 h): 32 µM
MIC ([4]; CGMCC 1.1075, 24 h): 16 µM
GM, All ([8]; geometric mean of MICs across all tested strains): 4.18 µM
TI, All [8, 12]: 61.24
MIC, FeCl3 (E. coli ATCC 25922): 8 µM
MIC, NH4Cl (E. coli ATCC 25922): 4 µM
MIC, ZnCl2 (E. coli ATCC 25922): 4 µM
MIC, MgCl2 (E. coli ATCC 25922): 4 µM
MIC, CaCl2 (E. coli ATCC 25922): 8 µM
MIC, KCl (E. coli ATCC 25922): 4 µM
MIC, NaCl (E. coli ATCC 25922): 16 µM
MIC, Control (E. coli ATCC 25922): 4 µM
MIC, FeCl3 (S. aureus 29213 [5]): 4 µM
MIC, NH4Cl (S. aureus 29213 [5]): 2 µM
MIC, ZnCl2 (S. aureus 29213 [5]): 4 µM
MIC, MgCl2 (S. aureus 29213 [5]): 4 µM
MIC, CaCl2 (S. aureus 29213 [5]): 4 µM
MIC, KCl (S. aureus 29213 [5]): 4 µM
MIC, NaCl (S. aureus 29213 [5]): 4 µM
MIC, Control (S. aureus 29213 [5]): 2 µM
